Experimental data taken from patent US10377742B2, “AMPK-activating heterocyclic compounds and methods for using the same” (Rigel Pharmaceuticals, Inc., priority 2010, dated 2019).

Molecular target: AMPK
Assay: AMPK activation, enzyme-linked immunosorbent assay
Format: biochemical
Procedure: Compounds were assayed for their ability to activate AMPK using an enzyme-linked immunosorbent assay. Reagents and procedures for measuring AMPK activation are well known and kits for AMPK activation assays are commercially available.

Compound | EC50
COc1ccc(C(=O)C2CCN(C(=O)c3ccc(C(=O)N[C@@H]4CCN(Cc5ccc(OC(F)(F)F)cc5)C[C@H]4F)cn3)CC2)cc1 (relative stereo) [Compound 350, N-((trans)-3-fluoro-1-(4-(trifluoromethoxy)benzyl)piperidin-4-yl)-6-(4-(4-methoxybenzoyl)piperidine-1-carbonyl)nicotinamide] | < 500 nM
COc1ccc(C(=O)C2CCN(C(=O)c3ccc(C(=O)N[C@@H]4CCN(Cc5ccc(OC(C)C)cc5)C[C@H]4F)cn3)CC2)cc1 (relative stereo) [Compound 353, N-((trans)-3-fluoro-1-(4-isopropoxybenzyl)piperidin-4-yl)-6-(4-(4-methoxybenzoyl)piperidine-1-carbonyl)nicotinamide] | < 500 nM
COc1ccc(C(=O)C2CCN(C(=O)c3ccc(C(=O)N[C@@H]4CCN(Cc5ccc(C#N)c(F)c5)C[C@H]4F)cn3)CC2)cc1 (relative stereo) [Compound 354, N-((trans)-1-(4-cyano-3-fluorobenzyl)-3-fluoropiperidin-4-yl)-6-(4-(4-methoxybenzoyl)piperidine-1-carbonyl)nicotinamide] | < 500 nM
COc1ccc(C(=O)C2CCN(C(=O)c3ccc(C(=O)N[C@@H]4CCN(Cc5ccc(C#N)cc5)C[C@@H]4F)cn3)CC2)cc1 (relative stereo) [Compound 454, N-((cis)-1-(4-cyanobenzyl)-3-fluoropiperidin-4-yl)-6-(4-(4-methoxybenzoyl)piperidine-1-carbonyl)nicotinamide] | < 500 nM
N#Cc1ccc(CN2CC[C@@H](NC(=O)c3ccc(C(=O)N4CCC(Oc5ccc(S(=O)(=O)C(F)(F)F)cc5)CC4)nc3)C(F)C2)cc1 (stereo in doubt) [Compound 451, N-((3S,4R)-1-(4-cyanobenzyl)-3-fluoropiperidin-4-yl)-6-(4-(4-(trifluoromethylsulfonyl)phenoxy)piperidine-1-carbonyl)nicotinamide] | < 500 nM
N#Cc1ccc(CN2CCC(NC(=O)c3ccc(Nc4ccc(Cc5ccccc5)cc4)cn3)CC2)cc1 [Compound 108, 5-(4-benzylphenylamino)-N-(1-(4-cyanobenzyl)piperidin-4-yl)picolinamide] | 500 to 1000 nM
N#Cc1ccc(CN2CCC(NC(=O)c3ccc(C(=O)N4CCC(Cc5ccccc5)CC4)cn3)CC2)cc1 [Compound 124, 5-(4-benzylpiperidine-1-carbonyl)-N-(1-(4-cyanobenzyl)piperidin-4-yl)picolinamide] | < 500 nM
N#Cc1ccc(CN2CCc3ccc(NC(=O)c4ccc(C(=O)N5CCN(Cc6ccc(F)cc6)CC5)cn4)cc3C2)cc1 [Compound 132, N-(2-(4-cyanobenzyl)-1,2,3,4-tetrahydroisoquinolin-7-yl)-5-(4-(4-fluorobenzyl)piperazine-1-carbonyl)picolinamide] | < 500 nM
N#Cc1ccc(O[C@H]2CC[C@@H](NC(=O)c3ccc(C(=O)N4CCC(Oc5ccc(C(F)(F)F)cc5)CC4)cn3)CC2)cc1F [Compound 199, N-((cis)-4-(4-cyano-3-fluorophenoxy)cyclohexyl)-5-(4-(4-(trifluoromethyl)phenoxy)piperidine-1-carbonyl)picolinamide] | < 500 nM
COc1ccc(C(=O)C2CCN(C(=O)c3ccc(C(=O)N[C@H]4CC[C@@H](Oc5cc(F)cc(F)c5)CC4)nc3)CC2)cc1 [Compound 300, N-((cis)-4-(3,5-difluorophenoxy)cyclohexyl)-5-(4-(4-methoxybenzoyl)piperidine-1-carbonyl)picolinamide] | < 500 nM
N#Cc1ccc(OC2CCN(C(=O)c3ccc(C(=O)N[C@H]4CC[C@@H](Oc5ccc(F)cc5)CC4)nc3)CC2)cc1 [Compound 303, 5-(4-(4-cyanophenoxy)piperidine-1-carbonyl)-N-((cis)-4-(4-fluorophenoxy)cyclohexyl)picolinamide] | < 500 nM
O=C(N[C@H]1CC[C@@H](Oc2ccc(F)cc2)CC1)c1ccc(C(=O)N2CCC(C(=O)c3ccc(F)cc3)CC2)cn1 [Compound 304, 5-(4-(4-fluorobenzoyl)piperidine-1-carbonyl)-N-((cis)-4-(4-fluorophenoxy)cyclohexyl)picolinamide] | < 500 nM
COc1ccc(C(=O)C2CCN(C(=O)c3ccc(C(=O)N[C@H]4CC[C@@H](Oc5ccc(F)cc5)CC4)nc3)CC2)cc1 [Compound 311, N-((cis)-4-(4-fluorophenoxy)cyclohexyl)-5-(4-(4-methoxybenzoyl)piperidine-1-carbonyl)picolinamide] | < 500 nM
O=C(N[C@H]1CC[C@@H](Oc2ccc(F)cc2)CC1)c1ccc(C(=O)N2CCC(Oc3ccc(F)cc3)CC2)cn1 [Compound 312, N-((cis)-4-(4-fluorophenoxy)cyclohexyl)-5-(4-(4-fluorophenoxy)piperidine-1-carbonyl)picolinamide] | < 500 nM
COc1ccc(C(=O)C2CCN(C(=O)c3ccc(C(=O)N[C@H]4CC[C@@H](Oc5ccc(F)cc5)CC4)cn3)CC2)cc1 [Compound 316, N-((cis)-4-(4-fluorophenoxy)cyclohexyl)-6-(4-(4-methoxybenzoyl)piperidine-1-carbonyl)nicotinamide] | < 500 nM
N#Cc1ccc(OC2CCN(C(=O)c3ccc(C(=O)N[C@H]4CC[C@@H](Oc5ccc(C#N)cc5)CC4)cn3)CC2)cc1 [Compound 321, N-((cis)-4-(4-cyanophenoxy)cyclohexyl)-6-(4-(4-cyanophenoxy)piperidine-1-carbonyl)nicotinamide] | < 500 nM
N#Cc1ccc(OC2CCN(C(=O)c3ccc(C(=O)N[C@H]4CC[C@@H](Oc5ccc(F)cc5)CC4)cn3)CC2)cc1 [Compound 324, 6-(4-(4-cyanophenoxy)piperidine-1-carbonyl)-N-((cis)-4-(4-fluorophenoxy)cyclohexyl)nicotinamide] | < 500 nM
N#Cc1ccc(O[C@H]2CC[C@@H](NC(=O)c3ccc(C(=O)N4CCN(Cc5ccc(F)cc5)CC4)nc3)CC2)cc1 [Compound 332, N-((cis)-4-(4-cyanophenoxy)cyclohexyl)-6-(4-(4-fluorobenzyl)piperazine-1-carbonyl)nicotinamide] | < 500 nM
N#Cc1ccc(CN2CCC(NC(=O)c3ccc(C(=O)N4CCC(Oc5ccc(C#N)cc5)CC4)nn3)CC2)cc1 [Compound 388, N-(1-(4-cyanobenzyl)piperidin-4-yl)-6-(4-(4-cyanophenoxy)piperidine-1-carbonyl)pyridazine-3-carboxamide] | < 500 nM
CC(=O)c1ccc(OC2CCN(C(=O)c3ccc(C(=O)NC4CCC(Oc5ccc(C#N)cc5)CC4)cn3)CC2)cc1 (stereo not shown) [Compound 402, 6-(4-(4-acetylphenoxy)piperidine-1-carbonyl)-N-(4-(4-cyanophenoxy)cyclohexyl)nicotinamide] | < 500 nM
CS(=O)(=O)c1ccc(N2CCC(NC(=O)c3ccc(C(=O)N4CCN(Cc5ccc(F)cc5)CC4)nc3)CC2)cc1 [Compound 421, 6-(4-(4-fluorobenzyl)piperazine-1-carbonyl)-N-(1-(4-(methylsulfonyl)phenyl)piperidin-4-yl)nicotinamide] | 1000 to 5000 nM
COc1ccc(C(=O)C2CCN(C(=O)c3ccc(C(=O)N[C@@H]4CCN(Cc5cc(C)on5)C[C@@H]4F)cn3)CC2)cc1 [Compound 426, N-((3S,4R)-3-fluoro-1-((5-methylisoxazol-3-yl)methyl)piperidin-4-yl)-6-(4-(4-methoxybenzoyl)piperidine-1-carbonyl)nicotinamide] | < 500 nM
COc1ccc(C(=O)C2CCN(C(=O)c3ccc(C(=O)N[C@@H]4CCN(Cc5csc(C)n5)C[C@@H]4F)cn3)CC2)cc1 [Compound 427, N-((3S,4R)-3-fluoro-1-((2-methylthiazol-4-yl)methyl)piperidin-4-yl)-6-(4-(4-methoxybenzoyl)piperidine-1-carbonyl)nicotinamide] | 1000 to 5000 nM
N#Cc1ccc(O[C@H]2CC[C@@H](NC(=O)c3ccc(C(=O)N4CCC(Oc5cccc(NC(=O)C6CC6)c5)CC4)nc3)CC2)cc1 [Compound 434, N-((cis)-4-(4-cyanophenoxy)cyclohexyl)-6-(4-(3-(cyclopropanecarboxamido)phenoxy)piperidine-1-carbonyl)nicotinamide] | < 500 nM
N#Cc1ccc(O[C@H]2CC[C@@H](NC(=O)c3ccc(C(=O)N4CCC(C(=O)c5ccc(N6CCCC6)cc5)CC4)nc3)CC2)cc1 [Compound 442, N-((cis)-4-(4-cyanophenoxy)cyclohexyl)-6-(4-(4-(pyrrolidin-1-yl)benzoyl)piperidine-1-carbonyl)nicotinamide] | < 500 nM
